Columns and labels:
C1 lysin = C1 lysin (Streptococcus phage C1, UniProt Q7Y3F3); assay: Competition experiments with monosaccharides or cell wall carbohydrate extracts; format: cell-based, C1 bacteriophage; details: 20 mM monosaccharide
Method: FIG. 7 is a bar graph illustrating lysin pretreated with […] Sugar (GlcNAc for A, L-Rhamnose for AV, or GalNAc for C), or extracted Group A carbohydrate (10 mg/ml). The black marker indicates buffer pretreatment; the gray marker indicates sugar pretreatment; and the white marker indicates Group A carbohydrate pretreatment.
Competition experiments. The three groups of cells were pretreated with monosaccharide or buffer containing 20 mM monosaccharide (GlcNAc for A, L-rhamnose for AV, or GalNAc for C), or extracted Group A carbohydrate (10 mg/ml) prior to exposure to the C1 lysin.

PlyG lysin = format: cell-based, γ phage of Bacillus anthracis; details: for blocking of PlyG's killing ability: bacillus RSVF, competition assay
RSVF1 = details: cited from earlier work

Sequence of C1 lysin (Q7Y3F3 whole entry, looked up): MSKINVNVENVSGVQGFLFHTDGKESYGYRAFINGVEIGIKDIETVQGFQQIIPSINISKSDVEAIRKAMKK

CC(=O)N[C@H]1C(O)O[C@H](CO)[C@H](O)[C@@H]1O (some centres unmarked) [GalNAc, N-acetyl-galactosamine]
effect of competitor on lysin activity (C1 lysin; group C cells): no decrease

C[C@H](O)[C@H](O)[C@@H](O)[C@@H](O)C=O [L-Rhamnose]
effect of competitor on lysin activity (C1 lysin; AV cells): no decrease

CC(=O)N[C@H]1C(O)O[C@H](CO)[C@@H](O)[C@@H]1O (some centres unmarked) [N-acetylglucosamine]
effect of competitor on lysin activity (C1 lysin; group A cells): no decrease
concentration that could block the lethal action of PlyG (PlyG lysin; exponential phase RSVF1, 15 min at 37° C., CFU ml^-1, FIG. 10): ≤ 0.5 mM

CC(=O)N[C@@H]1C(O)O[C@H](CO)[C@@H](O)[C@@H]1O (some centres unmarked) [N-acetylmannosamine]
blocking of PlyG's killing ability (PlyG lysin): Neither galactose nor N-acetylmannosamine blocked

O=C[C@H](O)[C@@H](O)[C@@H](O)[C@H](O)CO [galactose]
blocking of PlyG's killing ability (PlyG lysin): Neither galactose nor N-acetylmannosamine blocked

CO[C@@H]1[C@@H](OC(N)=O)[C@@H](O)[C@H](Oc2ccc3c(O)c(NC(=O)c4ccc(O)c(CC=C(C)C)c4)c(=O)oc3c2C)OC1(C)C [novobiocin]
increase in resistance after EMS mutagenesis (RSVF1): 1,000 fold

[H]/N=C(/N)N[C@H]1[C@H](O)[C@@H](O)[C@H](O[C@@H]2O[C@@H](C)[C@](O)(C=O)[C@H]2O[C@@H]2O[C@@H](CO)[C@H](O)[C@@H](O)[C@@H]2NC)[C@@H](N/C(N)=N\[H])[C@@H]1O [streptomycin]
increase in resistance after EMS mutagenesis (RSVF1): 10,000 fold
